Measurements from patent US20210308144A1 (priority 2021, published 2021).
Where two headings read alike, the source gives them in different places.

Key:
[1] = target: T1, human aromatase enzyme (human placental microsomes) (Homo sapiens, UniProt P11511); test: Human placental aromatase inhibition assay; format: biochemical
T1 construct: evaluated against human placental microsomes (aromatase enzyme); from tissue; host or cells: human placenta (microsomes)
T1 sequence (P11511 1-503): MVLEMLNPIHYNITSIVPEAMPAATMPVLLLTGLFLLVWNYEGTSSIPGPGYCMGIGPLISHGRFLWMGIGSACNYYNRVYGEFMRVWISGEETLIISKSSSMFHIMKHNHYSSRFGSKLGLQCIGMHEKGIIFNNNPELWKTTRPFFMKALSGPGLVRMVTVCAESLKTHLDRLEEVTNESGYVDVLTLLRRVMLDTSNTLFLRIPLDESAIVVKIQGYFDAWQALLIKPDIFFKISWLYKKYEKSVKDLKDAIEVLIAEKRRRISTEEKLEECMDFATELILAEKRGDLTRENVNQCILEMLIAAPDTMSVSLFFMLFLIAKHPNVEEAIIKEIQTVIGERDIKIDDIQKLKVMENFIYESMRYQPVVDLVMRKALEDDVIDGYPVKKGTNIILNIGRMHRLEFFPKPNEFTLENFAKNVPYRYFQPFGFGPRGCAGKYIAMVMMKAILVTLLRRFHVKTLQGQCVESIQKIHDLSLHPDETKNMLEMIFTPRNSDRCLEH

[2] = test system: BJ (human fibriblast) cell line; test: Cytotoxicity against BJ (human fibroblast) cell line
[3] = human placental microsomes, testosterone to 17β-estradiol conversion, UPLC, read-out: IC50 against human aromatase

SMILES | IC50 [1, 3] [nM] | cytotoxicity against BJ cell line [2] | IC50 [1] [nM]
CC1=CC(=O)C=C2CC[C@@H]3[C@H](CC[C@]4(C)C(=O)CC[C@@H]34)[C@@]12C [Compound 1, atamestane, reference compound] | 13.8 ± 0.2 |  | 
CC1=CC(=O)C=C2CC[C@@H]3[C@H](CC[C@]4(C)C(=O)CC[C@@]34O)[C@@]12C [Compound 2, 14α-hydroxy-1-methylandrosta-1,4-diene-3,17-dione] | 9.7 ± 0.72 | non-cytotoxic | 
CCCCCCC(=O)O[C@H]1CC[C@H]2[C@@H]3CC[C@H]4CC(=O)[C@H](C)C[C@]4(C)[C@H]3CC[C@]12C [Compound 3, drostanolone enanthate, reference compound] | 6.4 ± 0.06 |  | 
CC1=C[C@@]2(C)C(=CC1=O)CC[C@H]1[C@@H]3CC[C@H](O)[C@@]3(C)[C@H](O)C[C@@H]12 [Compound 4, 2-methylandrosta-12β,17β-dihydroxy-1,4-diene-3-one] | 4.23 ± 0.133 | non-cytotoxic | 
C[C@@H]1C[C@@]2(C)[C@@H](CC[C@H]3[C@@H]4CC[C@H](O)[C@@]4(C)CC[C@@]32O)CC1=O [Compound 5, 2α-methyl-9α,17β-dihydroxy-5α-androstan-3-one] | 793 ± 29.9 | non-cytotoxic | 
C=C1C[C@@H]2[C@H]([C@H](O)C[C@]3(C)[C@@H](O)CC[C@@H]23)[C@@]2(C)C=CC(=O)C=C12 [Compound 8, 11α,17β-dihydroxy-6-methylene-androsta-1,4-diene-3-one] |  | non-cytotoxic | 12800 ± 844
